“And” between values parts separate entries of the source, which are not always exact repeats. Equal entries are not always repeated.
Key:
[1] = Molar enthalpy of transition or fusion; details: DSC
[2] = for vapor or sublimation pressure: Calculated from knudsen effusion weight loss; for Triple point temperature: DTA

Cc1ccc(C(=O)O)cc1 [4-methylbenzoic acid]
Crystal
Details	Molar enthalpy of transition or fusion [kcal/mol]	Triple point temperature [K]
[1]	5.37	–
[2]	–	452.34

[2], Crystal
Details	vapor or sublimation pressure
319.68 K	0.000137 kPa and 0.000133 kPa
322.14 K	0.000182 kPa and 0.000179 kPa and 0.000174 kPa
324.62 K	0.000235 kPa and 0.00023 kPa
327.08 K	0.000309 kPa and 0.000307 kPa and 0.000312 kPa
329.73 K	0.000421 kPa and 0.000415 kPa and 0.000408 kPa
332.11 K	0.000536 kPa and 0.000529 kPa and 0.000515 kPa
334.63 K	0.00071 kPa and 0.000689 kPa and 0.000685 kPa
337.33 K	0.00092 kPa and 0.000891 kPa

CCCCCCCCc1ccc(C(=O)O)cc1 [4-octylbenzoic acid]
Details	Molar enthalpy of transition or fusion, Crystal 1 [kcal/mol]	Molar enthalpy of transition or fusion, Crystal 2 [kcal/mol]	Molar enthalpy of transition or fusion, Crystal 3 [kcal/mol]	Molar enthalpy of transition or fusion, Nematic liquid crystal [kcal/mol]	Triple point temperature, Crystal 1 [K]	Triple point temperature, Crystal 2 [K]	Triple point temperature, Crystal 3 [K]	Triple point temperature, Nematic liquid crystal [K]
[1]	3.42	0.112	1.29	0.287	–	–	–	–
[2]	–	–	–	–	373.25	366.56	305.46	385.54

[2]
Details	vapor or sublimation pressure
356.67 K, Crystal 2	8.5e-05 kPa and 8.6e-05 kPa
358.22 K, Crystal 2	0.000102 kPa and 0.000103 kPa
359.66 K, Crystal 2	0.000127 kPa and 0.000126 kPa
361.16 K, Crystal 2	0.00015 kPa and 0.000148 kPa
362.71 K, Crystal 2	0.000182 kPa and 0.000181 kPa
364.25 K, Crystal 2	0.000213 kPa and 0.000211 kPa
365.68 K, Crystal 2	0.000255 kPa and 0.000253 kPa
367.46 K, Crystal 1	0.000302 kPa and 0.000305 kPa
368.85 K, Crystal 1	0.000356 kPa and 0.000355 kPa
370.35 K, Crystal 1	0.000426 kPa and 0.000424 kPa
371.86 K, Crystal 1	0.000504 kPa and 0.000502 kPa

CCCCCc1ccc(C(=O)O)cc1 [4-pentylbenzoic acid]
Details	Molar enthalpy of transition or fusion, [1] [kcal/mol]	Triple point temperature, [2] [K]
Crystal 1	2.72	362.45
Nematic liquid crystal	0.263	399.3

[2], Crystal 1
Details	vapor or sublimation pressure
341.16 K	0.000174 kPa and 0.000177 kPa and 0.000169 kPa
343.16 K	0.000223 kPa and 0.000214 kPa
345.16 K	0.000279 kPa and 0.000271 kPa
347.18 K	0.000358 kPa and 0.000355 kPa and 0.000345 kPa
349.18 K	0.000454 kPa and 0.000455 kPa and 0.000439 kPa
351.17 K	0.000553 kPa and 0.000544 kPa and 0.000533 kPa
353.16 K	0.000694 kPa and 0.000692 kPa and 0.000682 kPa
355.16 K	0.000852 kPa and 0.000854 kPa and 0.000828 kPa
357.16 K	0.00109 kPa and 0.00106 kPa

CCCc1ccc(C(=O)O)cc1 [4-propylbenzoic acid]
Details	Molar enthalpy of transition or fusion, [1] [kcal/mol]	Triple point temperature, [2] [K]
Crystal 1	4.7	415.41
Crystal 2	0.81	298.48

[2], Crystal 1
Details	vapor or sublimation pressure
331.16 K	0.000166 kPa and 0.000162 kPa and 0.000159 kPa
333.14 K	0.000207 kPa
335.17 K	0.000259 kPa and 0.000252 kPa and 0.000246 kPa
337.17 K	0.000321 kPa and 0.000318 kPa
339.15 K	0.000397 kPa
341.16 K	0.000501 kPa and 0.000485 kPa
343.16 K	0.00062 kPa
345.14 K	0.000772 kPa and 0.000774 kPa and 0.000768 kPa
347.16 K	0.000968 kPa and 0.000944 kPa
